Measurements published in publication PMC5209733, “U24 from Roseolovirus interacts strongly with Nedd4 WW Domains” (Scientific Reports, 2017).
No end group written: not given here.

Assays:
Format in all cases: binding
[1] = biological target: T1, rNedd4-WW2 (Rattus norvegicus, UniProt Q62940); test: Isothermal titration calorimetry, rNedd4-WW2; settings: ITC, 25 °C, 10 mM sodium phosphate, pH 7.4; mean of three separate runs ± one SD
T1 construct: GST fusion proteins of the second and third WW domains (WW2 and WW3/4) of rNedd4; GST (N, cleaved yes); made in house; host or cells: E. coli BL21(DE3)
T1 sequence (Q62940 402-435 limits assumed): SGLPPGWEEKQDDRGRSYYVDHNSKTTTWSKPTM
Method: (§1) In order to compare the affinities between the U24 proteins and WW domains, the equilibrium dissociation constant (KD) for the interaction between each U24:Nedd4-WW domain pair tested above was determined using ITC. […] ITC experiments using these peptides as titrants were carried out on Nedd4-WW domains in 10 mM sodium phosphate, pH 7.4, at 25 °C. Control experiments in which the phosphate buffer was titrated into the protein solutions were also conducted to ensure the proteins were stable during the titration with peptide.
(§2) Two cDNA clones containing human E3 ubiquitin-protein ligase Nedd4 (KIAA0093) and Nedd4-like protein (KIAA0439) were ordered from Kazusa DNA research institute (Chiba, Japan). The DNA fragment of the third WW domain of both proteins was amplified and inserted into BamHI and XhoI sites of pGEX-4T2 vector (GE Healthcare). […]
(§3) After overnight dialysis, the cleaved Nedd4 WW domains in phosphate buffer, with different salt concentrations, were ready for use in ITC experiments. […] The concentration of the sample was determined by the absorbance at 280 nm in 6 M Guanidine HCl on a UV-Vis spectrophotometer, and calculated using the theoretical extinction coefficient obtained from the ProtParam tool[51]. […] The peptide amounts were determined gravimetrically and calibrated according to the absorbance at 280 nm in 6 M Guanidine HCl. […]

[2] = biological target: T2, hNedd4-WW3* (Homo sapiens, UniProt P46934); test: Isothermal titration calorimetry, hNedd4-WW3*; settings: ITC, 25 °C, 10 mM sodium phosphate, pH 7.4; mean of three separate runs ± one SD
T2 construct: The DNA fragment of the third WW domain of both proteins was amplified; GST (N, cleaved yes); made in house; host or cells: E. coli BL21(DE3)
T2 sequence (P46934 840-873 limits assumed): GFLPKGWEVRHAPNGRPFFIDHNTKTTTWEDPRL
Method: as §1, §2, §3

[3] = biological target: T3, rNedd4-WW3/4 (Rattus norvegicus, UniProt Q62940); test: Isothermal titration calorimetry, rNedd4-WW3/4; settings: ITC, 25 °C, 10 mM sodium phosphate
T3 construct: GST fusion proteins of the second and third WW domains (WW2 and WW3/4) of rNedd4; GST (N, cleaved yes); made in house; host or cells: E. coli BL21(DE3)
T3 sequence (Q62940 459-492 limits assumed): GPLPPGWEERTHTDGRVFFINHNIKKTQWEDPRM
Method: as §1
Importantly, this is the tightest affinity characterized to date between a U24 peptide ligand and WW domains.
In order to find out whether electrostatic interactions play a role in the binding of the three U24 peptides tested here to the Nedd4-WW domains, a set of ITC experiments were performed as a function of increasing salt concentration, 0 mM, 100 mM and 500 mM, in 10 mM sodium phosphate, pH 7.4, at 25 °C, for rNedd4-WW3/4 and hNedd4L-WW3*. Affinities and molar binding enthalpies (ΔH) for each U24:WW-domain pair as a function of salt concentration are plotted in Supplementary Fig. 2 and Fig. 3c and d, respectively.
(§4) Two cDNA clones containing human E3 ubiquitin-protein ligase Nedd4 (KIAA0093) and Nedd4-like protein (KIAA0439) were ordered from Kazusa DNA research institute (Chiba, Japan). The DNA fragment of the third WW domain of both proteins was amplified and inserted into BamHI and XhoI sites of pGEX-4T2 vector (GE Healthcare). The plasmids containing GST fusion proteins of the second and third WW domains (WW2 and WW3/4) of rNedd4 were kind gifts from Dr. Julie D. Forman-Kay (Hospital for Sick Children, Toronto). All plasmids were transformed into E. coli BL21(DE3) for expression at 25 °C for 16 hours using a final concentration of 400 μM IPTG. ^15N labelled protein was expressed in M9 media supplemented with ^15N labelled NH4Cl. The cells were harvested by centrifugation and stored in the −80 °C freezer until further use. The cell paste from approximately 600 mL culture was thawed on ice and resuspended in 10 mL PBS supplemented with 1% Triton X-100 (PBS/Triton buffer). Lysozyme, protease inhibitor and DNAse were added in the mixture. The mixture was incubated on ice for half an hour, then was lysed in an ice bath by sonication. After being centrifuged at 9,000 rpm for 1 hour, the supernatant was filtered using a 0.45 μm filter, and then applied to 2 mL of PBS washed Glutathione Sepharose 4B resin (GE Healthcare, GST 4B resin). The resin slurry with cell lysate was incubated for 2 hours at room temperature, and then washed with PBS/Triton buffer six times. The resin was collected by centrifugation at 600 × g for 5 minutes.
In order to obtain WW domains without the GST tag, the proteins were extracted and immobilized on GST 4B resin as described above. The resin was washed three times with PBS buffer, after the washing with PBS/Triton buffer. 3 mL PBS buffer and 150 units of thrombin (GE Healthcare) were added into the pelleted resin and the slurry was incubated at room temperature for 16 hours. The supernatant containing cleaved WW domains were collected on the second day by centrifugation. The residual thrombin in this fraction was removed using p-Aminobenzamidine-agarose (Sigma-Aldrich) and fresh GST 4B resin was used to remove the GST contaminants. The WW domain containing fraction was dialyzed at 4 °C against 2 L phosphate buffer (10 mM sodium phosphate, pH 7.4) using 2,000 MWCO dialysis membrane overnight for ITC or NMR experiments, or phosphate buffer with various salt concentrations (phosphate buffer with 100 mM or 500 mM NaCl) for ITC experiments.
After overnight dialysis, the cleaved Nedd4 WW domains in phosphate buffer, with different salt concentrations, were ready for use in ITC experiments. The dialysis buffer was kept as a sample-free buffer to measure the heats of dilution. […]

[4] = biological target: T4, hNedd4L-WW3* (Homo sapiens, UniProt Q96PU5); test: Isothermal titration calorimetry, hNedd4L-WW3*; settings: ITC, 25 °C, 10 mM sodium phosphate
T4 construct: The DNA fragment of the third WW domain of both proteins was amplified; GST (N, cleaved yes); made in house; host or cells: E. coli BL21(DE3)
T4 sequence (Q96PU5 497-530 limits assumed): as the sequence (P46934 840-873 limits assumed) above, with G1S, K5P, V9M, H11I counted along it
Method: as §1
In order to find out whether electrostatic interactions play a role in the binding of the three U24 peptides tested here to the Nedd4-WW domains, a set of ITC experiments were performed as a function of increasing salt concentration, 0 mM, 100 mM and 500 mM, in 10 mM sodium phosphate, pH 7.4, at 25 °C, for rNedd4-WW3/4 and hNedd4L-WW3*.
as §4
In order to obtain WW domains without the GST tag, the proteins were extracted and immobilized on GST 4B resin as described above. The resin was washed three times with PBS buffer, after the washing with PBS/Triton buffer. […]
After overnight dialysis, the cleaved Nedd4 WW domains in phosphate buffer, with different salt concentrations, were ready for use in ITC experiments. […]

[5] = pH 7.4, extra 100 mM NaCl, three runs
[6] = pH 7.4, extra 500 mM NaCl, three runs
[7] = pH 7.4, mean of three separate runs ± one SD

Molecule | Kd [1] [µM] | Kd [2] [µM] | Kd [3, 5] [µM] | Kd [3, 6] [µM] | Kd [4, 5] [µM] | Kd [4, 6] [µM] | Kd [4, 7] [µM] | Kd [3, 7] [µM]
CSCC[C@H](N)C(=O)N[C@@H](CC(=O)O)C(=O)N1CCC[C@H]1C(=O)N1CCC[C@H]1C(=O)N[C@@H](CCCNC(=N)N)C(=O)N[C@H](C(=O)N1CCC[C@H]1C(=O)N1CCC[C@H]1C(=O)N1CCC[C@H]1C(=O)N[C@@H](CO)C(=O)N[C@@H](Cc1ccc(O)cc1)C(=O)N[C@@H](CO)C(=O)N[C@@H](CCC(=O)O)C(=O)N[C@H](C(=O)N[C@@H](CC(C)C)C(=O)O)C(C)C)[C@@H](C)O [U24-6A] | 155 ± 12 | 9.7 ± 0.2 | 35.7 | 30.6 | 6.9 | 6.1 | 6.3 ± 0.3 | –
MTHETPPPSYNDVML [U24-7] | 87 ± 5 | 1.98 ± 0.04 | 14.6 | 13.2 | – | – | – | 21 ± 0.5
CSCC[C@H](N)C(=O)N[C@@H](CC(=O)O)C(=O)N1CCC[C@H]1C(=O)N1CCC[C@H]1C(=O)N[C@@H](CCCNC(=N)N)C(=O)N[C@H](C(=O)N1CCC[C@H]1C(=O)N1CCC[C@H]1C(=O)N1CCC[C@H]1C(=O)N[C@@H](CO)C(=O)N[C@@H](Cc1ccc(O)cc1)C(=O)N[C@@H](CO)C(=O)N[C@@H](CCC(=O)O)C(=O)N[C@H](C(=O)N[C@@H](CC(C)C)C(=O)O)C(C)C)[C@@H](C)OP(=O)(O)O [pU24-6A] | – | – | 12 | 9.5 | – | – | – | –
IKHEPENPPPYEEAM [Nogo-A, reference compound] | – | – | – | – | – | – | 4 ± 0.2 | –
